The results in this text go back to PubChem BioAssay (NCI).

Test systems include HCC-2998 colon; UACC-62 melanoma; RPMI-8226 leukemia; SK-MEL-2 melanoma; CAKI-1 renal; MDA-N; OVCAR-3 ovarian; MDA-MB-231 breast; OVCAR-5 ovarian; SF-295 CNS.
Holding throughout (assay): NCI tumour cell line growth inhibition, 48 h

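Each compound was tested at five concentrations against cells in 96-well plates for 48 hours. TGI: concentration producing complete growth inhibition.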

With `CO[C@H]1C[C@H](O[C@H]2CC[C@]3(C=O)[C@H]4CC[C@]5(C)[C@@H](C6=CC(=O)OC6)CC[C@]5(O)[C@@H]4CC[C@]3(O)C2)O[C@H](C)[C@H]1O`, the TGI was found to be 8.36 µM with HCC-2998 colon; 1.27 µM in the test on UACC-62 melanoma; 6.6 µM in the test with RPMI-8226 leukemia; 2.04 µM with SK-MEL-2 melanoma; 0.0947 µM with CAKI-1 renal; 1.87 µM in the test with MDA-N. The TGI in the test with OVCAR-3 ovarian worked out at 0.556 µM; in the test on MDA-MB-231 breast, 5.34 µM; with OVCAR-5 ovarian, 1.35 µM; in the test on SF-295 CNS, 0.671 µM.
Consider `O=C1c2ccccc2-c2[nH]c3cn[nH]c(=O)c3c21`, for which the TGI with UACC-62 melanoma, in the test on RPMI-8226 leukemia, with SK-MEL-2 melanoma, with CAKI-1 renal, in the test with MDA-N and with OVCAR-3 ovarian was above 100 µM throughout. The TGI with MDA-MB-231 breast, in the test on OVCAR-5 ovarian and in the test with SF-295 CNS was above 100 µM throughout.
Turning to `Nc1nc(Cl)cc(NCC2(O)CCCC2)n1`, the TGI in the test with HCC-2998 colon, with UACC-62 melanoma, in the test on RPMI-8226 leukemia, with SK-MEL-2 melanoma, in the test on CAKI-1 renal and with MDA-N was above 100 µM in each case. For the same compound, the TGI with OVCAR-3 ovarian, with MDA-MB-231 breast, in the test with OVCAR-5 ovarian and in the test with SF-295 CNS was above 100 µM throughout.
For the compound `NS(=O)(=O)c1ccc(NNc2c3ccccc3nc3c(C(=O)Nc4ccc(S(=O)(=O)Nc5ncccn5)cc4)cccc23)cc1`, the TGI in the test with HCC-2998 colon, in the test with UACC-62 melanoma, in the test on RPMI-8226 leukemia, in the test on SK-MEL-2 melanoma, in the test with CAKI-1 renal and in the test with MDA-N was above 25 µM in each case. For the same compound, the TGI in the test with OVCAR-3 ovarian, in the test on MDA-MB-231 breast, in the test with OVCAR-5 ovarian and in the test on SF-295 CNS was above 25 µM in each case.
In the case of `CCN(CC)c1ccc2cc(-c3nc4ccccc4c(=O)[nH]3)c(=N)oc2c1`, the TGI with HCC-2998 colon, in the test on UACC-62 melanoma, in the test on RPMI-8226 leukemia, with SK-MEL-2 melanoma, in the test on CAKI-1 renal and with MDA-N was above 100 µM each time. Besides, the TGI in the test on MDA-MB-231 breast, with OVCAR-5 ovarian and with SF-295 CNS was above 100 µM each time.
With `CC1OC2OC3C(OCC(O)C3O)OC(=O)[C@]34CCC(C)(C)CC3C3=CCC5[C@@]6(C)C[C@H](O)[C@H](OC7OC(CO)C(O)C(O)C7OC7OCC(OC(=O)CC(C)(O)CC(=O)OC1C(OC1OC(CO)C(O)C(O)C1O)C2O)C(O)C7O)[C@@](C)(CO)C6CC[C@@]5(C)[C@]3(C)CC4` (stereo partly drawn), the TGI in the test on HCC-2998 colon turned out to be 8.52 µM; in the test on UACC-62 melanoma it was 19.2 µM; with RPMI-8226 leukemia, 25.2 µM; in the test on SK-MEL-2 melanoma, 13.5 µM; in the test with CAKI-1 renal, 16.1 µM; with MDA-N, 7.76 µM. The TGI in the test on OVCAR-3 ovarian is 19.3 µM; in the test with MDA-MB-231 breast, 21.1 µM; in the test with OVCAR-5 ovarian, 18.9 µM; in the test with SF-295 CNS, 13.4 µM.
With `NC(=O)CO/N=C1/C(c2c(O)[nH]c3ccccc23)=Nc2ccccc21`, the TGI in the test on UACC-62 melanoma, in the test on RPMI-8226 leukemia, with SK-MEL-2 melanoma, in the test on CAKI-1 renal, with MDA-N and in the test on OVCAR-3 ovarian was above 100 µM throughout. Moreover, the TGI with MDA-MB-231 breast, with OVCAR-5 ovarian and in the test with SF-295 CNS was above 100 µM each time.
Take `Cc1cc2cc3c(cc2c(-c2ccc(N)cc2)n1)OCO3`: the TGI in the test on UACC-62 melanoma was above 100 µM; in the test with RPMI-8226 leukemia, 73.7 µM; in the test on SK-MEL-2 melanoma, above 100 µM; in the test with CAKI-1 renal, 75.4 µM; in the test with MDA-N it was above 100 µM; in the test with OVCAR-3 ovarian, 67.9 µM. Besides, the TGI with MDA-MB-231 breast, in the test with OVCAR-5 ovarian and in the test on SF-295 CNS was above 100 µM each time.
Consider `CC(=O)/C(=C\c1ccc(Cl)c(Cl)c1)C(=O)C(C)CN(C)C` (stereo not drawn), for which the TGI with HCC-2998 colon worked out at 9.66 µM; in the test on RPMI-8226 leukemia, 3.63 µM; in the test with CAKI-1 renal it was 17.1 µM; with MDA-N, 16.2 µM; in the test with OVCAR-3 ovarian it was 16.1 µM; in the test with MDA-MB-231 breast, 27.3 µM. For the same compound, the TGI in the test on OVCAR-5 ovarian came out at 23.8 µM; in the test with SF-295 CNS, 16.5 µM.
For `CSc1ccc(/C=C2\N=C(c3ccccc3)N(/N=C/c3cc4cc(C)ccc4nc3Cl)C2=O)cc1`, the TGI with HCC-2998 colon was 35.5 µM; with UACC-62 melanoma, 33.7 µM; in the test on RPMI-8226 leukemia, above 100 µM; with SK-MEL-2 melanoma, 43.7 µM; in the test on CAKI-1 renal, 45.3 µM; in the test on MDA-N, 34.5 µM. The TGI with OVCAR-3 ovarian was 48.7 µM; in the test with MDA-MB-231 breast, 47.6 µM; in the test on OVCAR-5 ovarian it was 74.9 µM; in the test on SF-295 CNS it was 44.7 µM.
In the case of `CC(C)OC1OC(CO)C(O)CC1n1cc(F)c(=O)[nH]c1=O` (stereo not drawn), the TGI with HCC-2998 colon, with UACC-62 melanoma, in the test with RPMI-8226 leukemia, with SK-MEL-2 melanoma, in the test on CAKI-1 renal and in the test with MDA-N was above 100 µM each time. Moreover, the TGI in the test with OVCAR-3 ovarian, with MDA-MB-231 breast, in the test on OVCAR-5 ovarian and in the test on SF-295 CNS was above 100 µM each time.
On to `O=C1CC(n2cccc2)c2c(Br)sc(Br)c21` (stereo not drawn), for which the TGI in the test with HCC-2998 colon stood at 28.7 µM; in the test with UACC-62 melanoma it was 30.3 µM; in the test with RPMI-8226 leukemia, 27.4 µM; with SK-MEL-2 melanoma it was 29.1 µM; with CAKI-1 renal it was 19.8 µM; in the test on MDA-N, 31.6 µM. Moreover, the TGI was 33.2 µM with OVCAR-3 ovarian, 30.9 µM in the test with MDA-MB-231 breast, 32.5 µM in the test with OVCAR-5 ovarian and 55.8 µM in the test with SF-295 CNS.
As for `COC(=O)CCCC(=O)NC1=C(NCc2ccccc2)C(=O)c2ccccc2C1=O`, the TGI in the test with HCC-2998 colon, in the test with UACC-62 melanoma, in the test on RPMI-8226 leukemia, with SK-MEL-2 melanoma, in the test on CAKI-1 renal and with MDA-N was above 100 µM each time. Further, the TGI with OVCAR-3 ovarian was 90.6 µM; with MDA-MB-231 breast, above 100 µM; in the test with OVCAR-5 ovarian it was above 100 µM.
In the case of `S=C(NCc1ccccc1)N/N=C/c1ccccn1`, the TGI in the test with HCC-2998 colon was above 68.5 µM; in the test with UACC-62 melanoma, 25.1 µM; in the test with RPMI-8226 leukemia it was 2.33 µM; in the test on SK-MEL-2 melanoma, above 100 µM; with CAKI-1 renal it was above 96.6 µM; in the test with MDA-N, above 100 µM. Further, the TGI in the test with OVCAR-3 ovarian, in the test on MDA-MB-231 breast and in the test on OVCAR-5 ovarian was above 100 µM in each case.
For `CS(=O)(=O)NC12CCC(c3ccccc31)c1ccccc12`, the TGI with UACC-62 melanoma, in the test with RPMI-8226 leukemia, in the test on SK-MEL-2 melanoma, in the test with CAKI-1 renal, in the test on MDA-N and in the test on OVCAR-3 ovarian was above 100 µM each time. The TGI with MDA-MB-231 breast and with OVCAR-5 ovarian was above 100 µM throughout.
On to `Cc1nc2ccc(Cl)cc2c2c1CCN2c1ccccc1`, for which the TGI in the test with HCC-2998 colon came to 24.8 µM; in the test on UACC-62 melanoma it was 23.6 µM; in the test with RPMI-8226 leukemia it was 31.4 µM; in the test on CAKI-1 renal, 28.1 µM; with MDA-N, 10.1 µM; with OVCAR-3 ovarian, 44.1 µM. Also, the TGI in the test on MDA-MB-231 breast came to 13.7 µM; in the test with SF-295 CNS it was 20.1 µM.
On to `CC(C)(C)OC(=O)n1cc(C2CN(O)C(=O)C23CCC(=O)N3Cc2ccccc2)c2ccccc21` (stereo not drawn), for which the TGI is above 100 µM with UACC-62 melanoma; 93.5 µM with RPMI-8226 leukemia; 35.7 µM with SK-MEL-2 melanoma; above 100 µM in the test on CAKI-1 renal; above 100 µM in the test on MDA-N; above 100 µM with OVCAR-3 ovarian. Further, the TGI in the test with MDA-MB-231 breast, with OVCAR-5 ovarian and in the test with SF-295 CNS was above 100 µM throughout.
Turning to `Cc1ccc(S(=O)(=O)n2cc(C#N)c(C#N)c2)cc1`, the TGI came out at 48.2 µM with HCC-2998 colon; 33.7 µM with UACC-62 melanoma; 52 µM in the test with SK-MEL-2 melanoma; 59.1 µM in the test on CAKI-1 renal; 70.7 µM with MDA-N; 46.2 µM with OVCAR-3 ovarian. Further, the TGI with MDA-MB-231 breast was above 100 µM; in the test with OVCAR-5 ovarian, 81.2 µM; in the test with SF-295 CNS, 61.6 µM.
Turning to `C=C(C)[C@@H]1CC[C@]2(C(=O)O)CC[C@]3(C)[C@H](CCC4[C@@]5(C)CC[C@H](C(=O)/C=C/c6ccc(O)c(O)c6)C(C)(C)[C@@H]5CC[C@]43C)[C@@H]12` (stereo partly drawn), the TGI with HCC-2998 colon amounted to 7 µM; in the test with UACC-62 melanoma it was 27.6 µM; with SK-MEL-2 melanoma, 38 µM; with CAKI-1 renal it was 16.8 µM; with MDA-N it was 15.9 µM; in the test with OVCAR-3 ovarian it was 22.5 µM. In addition, the TGI in the test on MDA-MB-231 breast was found to be 35.7 µM; in the test on OVCAR-5 ovarian, 26.7 µM; in the test with SF-295 CNS it was 18.4 µM.
For `C/C(=N\Nc1nc2ccccc2[nH]1)c1cc2ccccc2cn1`, the TGI is 3.46 µM in the test on HCC-2998 colon; 1.09 µM in the test on UACC-62 melanoma; 0.599 µM in the test with RPMI-8226 leukemia; 1.32 µM in the test with CAKI-1 renal; 2.24 µM in the test with MDA-N; 0.911 µM with OVCAR-3 ovarian. Moreover, the figures for the TGI with MDA-MB-231 breast and in the test with OVCAR-5 ovarian were 1.97 µM and 2.5 µM, respectively.
